Measurements published in US10196357B2, “Biaryl compositions and methods for modulating a kinase cascade” (Athenex, Inc., priority 2007, dated 2019).
Where two headings read alike, the source gives them in different places.

Columns and labels:
[1] = tested on: c-Src 3T3 cells; experiment: BrdU cell growth inhibition, c-Src 3T3; type: cell-based, mouse; settings: for GI50: c-Src 3T3 (c-Src527F/NIH3T3) cells; for activity at 0.1 µM / activity at 1 µM / activity at 10 µM: NIH3T3, read-out: c-Src 3T3 Growth, % of Control Mean, n = 3; for activity at 0.1 µM: 100 nM
Experimental: (§1) The GI50s for several of the compounds of the invention were assayed as described herein.
The cells were routinely cultured in DMEM supplemented with Fetal Bovine Serum (2.0% v/V), L-glutamine (2 mM) and Sodium Pyruvate (1 mM).
(§2) In the BrdU Assay for cell growth inhibition, quantitation of cell proliferation was based on the measurement of BrdU incorporation during DNA synthesis. The Cell Proliferation ELISA BrdU assay kit (colorimetric) was obtained from Roche Applied Science and performed as per vendor instructions.
(§3) The growth inhibition (GI) is determined from the formula GI=(T0−Tn×100/T0−CONn) where T0 is the BrdU growth of untreated cells at time “0”, Tn is the BrdU growth of treated cells at day “n” and CONn is the control BrdU growth of control cells at day “n”. The GI50 was extrapolated and the data plotted using XL-Fit 4.0 software.
(§4) For 96 well culture plate experiments, c-Src 3T3 medium was supplemented with 10 mM HEPES buffer. HT-29 cells were seeded in standard tissue culture 96-well plates and c-Src 3T3 cells were seeded in 96-well plates coated with Poly-D-lysine (BIOCOAT™). To increase CO2 diffusion, c-Src 3T3 96-well plates were incubated with their lids raised by ˜2 mm using sterile rubber caps.
(§5) Samples were reconstituted in DMSO at 20 mM and intermediate dilutions made using DMEM containing 10% FBS. […] Plates were assayed for BrdU and the data analyzed as above for GI50.
(§6) All compounds were initially prepared as 20 mM DMSO stock solutions and then diluted into buffer for the in vitro tumor growth assays. NG means no cell growth beyond the control and T means the number of cells in the drug treated wells was less than in the control (i.e. net cell loss).

[2] = tested on: HT29 cell line; experiment: BrdU cell growth inhibition, HT29; type: cell-based, human; settings: for activity at 0.05 µM / activity at 0.5 µM / activity at 5 µM: HT-29, read-out: HT-29 Growth, % of Control Mean, n = 3; for activity at 0.05 µM: 50 nM; for activity at 0.5 µM: 500 nM
Experimental: as §1
The HT29 cell line is a NCI standard human colon carcinoma cell line.
as §2, §3, §4, §5, §6
Growth Inhibition. […] T1 values≤T0 values were designated as T, cytotoxicity.

[3] = Homo sapiens, HT-29, HT29 (Colon) cells, read-out: GI50

| GI50 [2, 3] | GI50 ([2]; HT29 (Colon) cells) | Compound | GI50 ([1]; Mus musculus, read-out: GI50) | activity at 0.1 µM ([1]; Mus musculus) | activity at 1 µM ([1]; Mus musculus) | activity at 10 µM ([1]; Mus musculus) | activity at 0.05 µM ([2]; Homo sapiens) | activity at 0.5 µM ([2]; Homo sapiens) | activity at 5 µM ([2]; Homo sapiens) | GI50 [1] | GI50 ([2]; HT29 (Colon) cells, read-out: GI50) |
| --- | --- | --- | --- | --- | --- | --- | --- | --- | --- | --- | --- |
| 906 nM |  | CCOc1ccc(-c2ccc(CC(=O)NCc3cc(F)cc(N4CCN(C)CC4)c3)nc2)cc1 [KX2-388] | > 1600 nM |  |  |  |  |  |  |  |  |
| 354 nM |  | O=C(Cc1ccc(-c2ccc(OCCN3CCCCC3)cc2)cn1)NCc1cccc(F)c1 [KX2-375] | 206 nM | < 0% | < 0% | < 0% | 99% | < 0% | < 0% |  |  |
|  |  | O=C(Cc1ccc(-c2ccccn2)cc1)NCc1cccc(F)c1 [KX1-315, N-(3-Fluoro-benzyl)-2-(4-pyridin-2-yl-phenyl)-acetamide] |  | 89.3% | 88.1% | < 0% | 66% | 50.3% | < 0% |  |  |
| 21 nM |  | O=C(Cc1ccc(-c2ccc(OCCN3CCOCC3)cc2F)cn1)NCc1cccc(F)c1 [KX2-392] | 13 nM |  |  |  |  |  |  |  |  |
| 330 nM |  | CN1CCN(CCOc2cc(OC3CCOCC3)c3c(Nc4c(Cl)ccc5c4OCO5)ncnc3c2)CC1 [AZD0530, reference compound] | 203 nM |  |  |  |  |  |  |  |  |
| 868 nM |  | CN1CCN(CCCOc2ccc(-c3ccc(CC(=O)NCc4cccc(F)c4)nc3)cc2)CC1 [KX2-390] | 797 nM |  |  |  |  |  |  |  |  |
|  |  | O=C(Cc1ccc(-c2ccccc2)cc1)NCc1cc(O)cc(OCc2ccccc2)c1 [KX1-306] |  | 47% | < 0% | < 0% | 124% | < 0% | < 0% |  |  |
|  |  | CCOc1ccccc1-c1ccc(CC(=O)NCc2cccc(F)c2)nc1 [KX2-360] |  | 106% | < 0% | < 0% | 91% | < 0% | < 0% |  |  |
|  |  | CCOc1ccc(-c2ccc(CC(=O)NCc3cc(F)cc(OCCN4CCOCC4)c3)nc2)cc1 [KX2-378] |  | 122% | 107% | 48% | 88% | 61% | < 0% |  |  |
|  |  | O=C(Cc1ccc(-c2ccccc2F)cc1)NCc1cccc(F)c1 [KX1-309] |  | < 0% | < 0% | < 0% | 29.5% | < 0% | < 0% |  |  |
|  |  | CCOc1ccc(-c2ccc(CC(=O)NCc3cccc(F)c3)c[n+]2[O-])cc1 [KX1-358, 2-[6-(4-Ethoxy-phenyl)-1-oxo-pyridin-3-yl]-N-(3-fluoro-benzyl)-acetamide] |  | 92.2% | 91.4% | 82.7% |  |  |  |  |  |
|  |  | CC(C)COc1cc(F)cc(CNC(=O)Cc2ccc(-c3ccc(CN4CCN(C)CC4)cc3)cn2)c1 [KX2-385] | 232 nM |  |  |  |  |  |  |  |  |
|  | inactive | CCOc1ccc(-c2ccc(CC(=O)NCc3cccc(F)c3)nc2)c(OCCN2CCCCC2)c1 [KX2-389] |  |  |  |  |  |  |  | Inactive |  |
|  |  | O=C(Cc1cccc(-c2ccccc2)c1)NCc1cccc(F)c1 [KX1-307] |  | 65.7% | 45.3% | 4.2% | 85.9% | 93.8% | 39.4% |  |  |
|  |  | CCOc1ccc(-c2ccc(CC(=O)NCc3cc(F)cc(N4CCOCC4)c3)nc2)cc1 [KX2-382] |  | 117% | 114% | 103% | 80% | 97% | 50% |  |  |
|  |  | CC(C)COc1cc(F)cc(CNC(=O)Cc2ccc(-c3ccc(CN4CCCCC4)cc3)cn2)c1 [KX2-366] |  | 103% | 83% | < 0% | 89% | 54% | < 0% |  |  |

| GI50 [2, 3] | GI50 ([2]; HT29 (Colon) cells) | Compound | GI50 ([1]; Mus musculus, read-out: GI50) | activity at 0.1 µM ([1]; Mus musculus) | activity at 1 µM ([1]; Mus musculus) | activity at 10 µM ([1]; Mus musculus) | activity at 0.05 µM ([2]; Homo sapiens) | activity at 0.5 µM ([2]; Homo sapiens) | activity at 5 µM ([2]; Homo sapiens) | GI50 [1] | GI50 ([2]; HT29 (Colon) cells, read-out: GI50) |
| --- | --- | --- | --- | --- | --- | --- | --- | --- | --- | --- | --- |
|  |  | CN(Cc1cccc(F)c1)C(=O)Cc1ccc(-c2ccccc2)cc1 [KX1-312, N-(3-fluorobenzyl)-N-methyl-4-biphenylacetamide] |  | 98.5% | 94.5% | 12.1% | 93.7% | 67.6% | 33.7% |  |  |
| 93 nM |  | CN1CCN(CCOc2ccc(-c3ccc(CC(=O)NCc4cccc(F)c4)nc3)cc2)CC1 [KX2-365] | 133 nM | 88% | < 0% | < 0% | 88% | < 0% | < 0% |  |  |
|  |  | CCOc1ccc(-c2ccc(CC(=O)NCc3cc(F)cc(N4CCCCC4)c3)nc2)cc1 [KX2-379] |  | 106% | 104% | < 0% | 89% | 88% | < 0% |  |  |
|  |  | O=C(Cc1ccc(-c2ccccc2)cc1)Nc1cccc(F)c1 [KX1-308, N-(3-fluorophenyl)-4-biphenylacetamide] |  | 94.5% | 77.7% | 67.1% | 87.9% | 76.1% | 32.3% |  |  |
|  |  | O=C(Cc1ccc(-c2ccc(C(=O)O)cc2)nc1)NCc1cccc(F)c1 [KX1-323, 4-{5-[(3-Fluoro-benzylcarbamoyl)-methyl]-pyridin-2-yl}-benzoic acid] |  | 96.6% | 97.3% | 93.2% | 106% | 107% | 60.8% |  |  |
|  |  | O=C(Cc1ccc(-c2cccc(F)c2)nc1)NCc1cccc(F)c1 [KX1-321, N-(3-Fluoro-benzyl)-2-[6-(3-fluoro-phenyl)-pyridin-3-yl]-acetamide] |  | 95.5% | 96.2% | 55.8% | 127% | 118% | 23.7% |  |  |
|  | inactive | CCOc1ccc(-c2ccc(CC(=O)NCc3cccc(F)c3)nc2)c(OCCN2CCN(C)CC2)c1 [KX2-384] | 1430 nM |  |  |  |  |  |  |  |  |
|  |  | O=C(Cc1ccc(-c2ccccc2)c(F)c1)NCc1cccc(F)c1 [KX1-319, N-(3-Fluoro-benzyl)-2-(2-fluoro-biphenyl-4-yl)-acetamide] |  | 88.2% | < 0% | < 0% | 101% | < 0% | < 0% |  |  |
|  |  | CC(C)COc1cc(F)cc(CNC(=O)Cc2ccc(-c3ccc(CN4CCOCC4)cc3)cn2)c1 [KX2-363] |  | 92% | 70% | 100% | 92% | 67% | < 0% |  |  |
| 1860 nM |  | CC(C)COc1cc(F)cc(CNC(=O)Cc2ccc(-c3ccc(OCCN4CCOCC4)cc3)cn2)c1 [KX2-387] |  |  |  |  |  |  |  | inactive |  |
| 52 nM |  | O=C(Cc1ccc(-c2ccc(CN3CCOCC3)cc2F)cn1)NCc1cccc(F)c1 [KX2-393] | 24 nM |  |  |  |  |  |  |  |  |
|  |  | O=C(Cc1ccc(-c2ccccc2)cc1F)NCc1cccc(F)c1 [KX1-313, N-(3-fluorobenzyl)-4-phenyl-2-fluorophenylacetamide] |  | 91.6% | < 0% | < 0% | 80.2% | < 0% | < 0% |  |  |
|  |  | O=C(Cc1ccc(-c2cccnc2)cc1)NCc1cccc(F)c1 [KX1-316] | > 200 nM | 88.2% | < 0% | < 0% | 77.8% | 45.1% | < 0% |  |  |
|  |  | O=C(Cc1ccc(-c2ccc(F)cc2)nc1)NCc1cccc(F)c1 [KX1-320, N-(3-Fluoro-benzyl)-2-[6-(4-fluoro-phenyl)-pyridin-3-yl]-acetamide] |  | 90.4% | 86.5% | 73.1% | 111% | 132% | 86.2% |  |  |
|  |  | O=C1[O][Pt]2([NH][C@@H]3CCCC[C@H]3[NH]2)[O]C1=O [oxaliplatin, reference compound] |  |  |  |  |  |  |  |  | 1480 nM |
|  |  | O=C(Cc1ccc(-c2cc[n+]([O-])cc2)cc1)NCc1cccc(F)c1 [KX1-357] |  | 101% | 95.4% | 9% |  |  |  |  |  |
